Test results from patent publication US4117230A, “Hydantoin derivatives as therapeutic agents” (priority 1977, dated 1978).
Structures can show the parent of a compound that is named as a salt. Values belong to the compound of their own block, whether it stands above or below them.

Experiments:
aldose reductase = target: T1, aldose reductase (Bos taurus, UniProt P16116); test: inhibition of aldose reductase enzyme activity (procedure of S. Hayman et al., modified by K. Sestanj et al.); format: biochemical, calf
T1 construct: partially purified aldose reductose enzyme obtained from calf lens; from tissue; host or cells: calf lens
Protocol: (§1) The activity of the compounds of the present invention, as agents for the control of chronic diabetic complications, is determined by their ability to successfully pass one or more of the following standard biological and/or pharmacological tests, viz., (1) measuring their ability to inhibit the enzyme activity of isolated aldose reductase; (2) measuring their ability to reduce or inhibit sorbitol accumulation in the sciatic nerve of acutely sterptozotocinized (i.e., diabetic) rats; (3) measuring their ability to reverse already-elevated sorbitol levels in the sciatic nerve and lens of chronic streptozotocin-induced diabetic rats; (4) measuring their ability to prevent or inhibit galactitol formation in the lens of acutely galactosemic rats, and (5) measuring their ability to delay cataract formation and reduce the severity of lens opacities in chronic galactosemic rats.
Hayman et al., as described in the Journal of Biological Chemistry, Vol. 240, p. […] In every case, the substrate employed ws partially purified aldose reductose enzyme obtained from calf lens.

[1] = test system: sorbitol accumulation in the sciatic nerve of streptozotocinized (i.e., diabetic) rats; test: inhibition of sorbitol accumulation in the sciatic nerve of acutely streptozotocinized (diabetic) rats; format: in vivo, rat; details: measured at 27 h, vs untreated
Protocol: as §1
The following spiro-hydantoin compounds of Preparation C and Examples I-V, VII-IX, XI-XVII, XIX-XXV, XXVII and XXX-XXXIII, respectively, were tested for their ability to reduce or inhibit sorbitol accumulation in the sciatic nerve of streptozotocinized (i.e., diabetic) rats by the procedure essentially described in U.S. Pat. No. 3,821,383. In the present study, the amount of sorbitol accumulation in the sciatic nerves was measured 27 hours after induction of diabetes. The compounds were administered orally at the dose levels indicated at 4, 8 nd 24 hours following the administration of streptozotocin. The results obtained in this manner are presented below in terms of percent inhibition (%) afforded by the test compound as compared to the case where no compound was administered (i.e., the untreated animal where sorbitol levels normally rise from approximately […]. tissue to as high as […]. tissue in the 27-hour test period): […]

[2] = test system: sorbitol levels in the sciatic nerve and the lens of streptozotocin-induced diabetic rats; test: reversal of already-elevated sorbitol levels in sciatic nerve and lens of chronic streptozotocin-induced diabetic rats; format: in vivo, rat; details: 2.5 mg./kg. orally twice a day, seven days; two weeks after streptozotocin 65 mg./kg. i.v.; three hours post dose
Protocol: as §1
6-Fluoro-spiro-[chroman-4,4'-imidazolidine]-2',5'-dione (the product of Example XXII) was tested for its ability to reverse already-elevated sorbital levels in streptozotocininduced diabetic rats of two weeks duration (i.e., chronic) by administering said compound orally to the animals for a period of seven days. In this study, the sorbital determinations were carried out in both the sciatic nerve and the lens. Streptozotocin was first administered to the animals at 65 mg./kg., via the intravenous route. […]

[3] = test system: galactitol formation in acutely galactosemic rats (lens); test: inhibition of galactitol formation in the lens of acutely galactosemic rats; format: in vivo, rat; details: 30% galactose diet, seven days
Protocol: as §1
The ability of 6-fluoro-spiro-[chroman-4,4'-imidazolidine]-2',5'-dione to prevent or inhibit galactitol formation in acutely galactosemic rats was determined by administering said compound to the animals, via their feed, for a period of seven days. In this study, normal male rats were first divided into groups of six animals each and then fed a 30% galactose diet together with the compound to be administered at three different dosage levels. […]

[4] = test system: cataract formation in galactosemic rats; test: delay of cataract formation in galactosemic rats (incidence of lenticular opacities); format: in vivo, rat; details: 30% galactose diet
Protocol: as §1
(§2) To determine the effect of 6-fluoro-spiro-[chroman-4,4'-imidazolidine]-2',5'-dione on cataract formation in galactosemis, rats were fed a 30% galactose diet with and without this compound for a period of 29 days and eye examinations also were routinely conducted approximately twice a week throughout this period. The experimental animals received the test compound mixed in the food at concentration levels necessary to afford approximate doses of 10 mg./kg. and 20 mg./kg., respectively. Control animals received the galactose diet alone (i.e., without the compound). […] The corresponding value obtained in rats receiving the test compound at 20 mg./kg. was 0%.

[5] = test system: lenticular opacities in galactosemic rats; test: severity of lenticular opacities in galactosemic rats (percentage of lens area involved); format: in vivo, rat; details: for lenses with area of involvement never less than 10%: 17 days, control 75%
Protocol: as §1, §2
The effectiveness of 6-fluoro-spiro-[chroman-4,4'-imidazolidine]-2',5'-dione in delaying cataract development in rats is further highlighted by the test producedure of Example XLIV by giving careul consideration to the severity of the lenticular opacities involved. In this study, the percentage of lens areas involved were monitored throughout the 29-day period and the results obtained served as an index of severity. […]

[6] = test system: sorbitol levels in diabetic rats; test: control of sorbitol formation in diabetic rats, oral route (summary statement); format: in vivo, rat; details: 0.75 mg./kg. to 20 mg./kg.
Description: As previously indicated, the spiro-hydantoin compounds of this invention are all readily adapted to therapeutic use as aldose reductase inhibitors for the control of chronic diabetic complications, in view of their ability to reduce lens sorbitol levels in diabetic subjects to a staistically significant degree. […] The other compounds of this invention also cause similar results. Furthermore, all the herein described compounds of this invention can be administered by either the oral or parenteral routes of administration, for the present purposes at hand, without causing any significant untoward pharmacological side reactions to occur in the subject to whom they are so administered. In general, these compounds are ordinarily administered in dosages ranging from about 0.1 mg. to about 10 mg. per kg. of body weight per day, although variations will necessarily occur depending upon the weight and condition of the subject being treated and the particular route of administration chosen.

[7] = test system: sorbitol levels in the sciatic nerve and lens of diabetic subjects; test: lowering of sorbitol levels in sciatic nerve (peripheral nerves) and lens of diabetic subjects (summary statement); format: in vivo; details: qualitative statement
[8] = test system: galactitol levels in the lens of galactosemic subjects; test: lowering of galactitol levels in the lens of galactosemic subjects (summary statement); format: in vivo; details: qualitative statement
[9] = format: physicochemical
Protocol: The sodium salt of 6-fluoro-spiro-[chroman-4,4'-imidazolidine]-2',5'-dione is prepared by dissolving said compound in water containing an equivalent amount in moles of sodium hydroxide and then freeze-drying the mixture.

inhibition at 100 µM (aldose reductase; 10^-4 M, calf lens enzyme, read-out: Percent inhibition of aldose reductase enzyme activity): 84%
inhibition at 10 µM (aldose reductase; 10^-5 M, calf lens enzyme, read-out: Percent inhibition of aldose reductase enzyme activity): 58%
inhibition at 1 µM (aldose reductase; 10^-6 M, calf lens enzyme, read-out: Percent inhibition of aldose reductase enzyme activity): 52%
inhibition at 0.1 µM (aldose reductase; 10^-7 M, calf lens enzyme, read-out: Percent inhibition of aldose reductase enzyme activity): 3%
aldose reductase inhibitory activity (in words) (aldose reductase; qualitative statement): highly potent
Compound: O=C1NC(=O)C2(CCOc3ccc(F)cc32)N1 (stereo not shown) [Ex. XXII, 6-fluoro-spiro[chroman-4,4'-imidazolidine]-2',5'-dione]
Percent inhibition of sorbitol accumulation in the sciatic nerve ([1]; 0.75 mg./kg. orally at 4, 8 and 24 h after streptozotocin): 45%
Percent inhibition of sorbitol accumulation in the sciatic nerve ([1]; 1.5 mg./kg. orally at 4, 8 and 24 h after streptozotocin): 72%
reduction in sorbitol levels in the lens [2]: 71%
reduction in sorbitol levels in the sciatic nerve [2]: 68%
inhibition of galactitol values in the lens ([3]; 10 mg./kg. in feed): 40%
inhibition of galactitol values in the lens ([3]; 20 mg./kg. in feed): 72%
delay in cataract formation ([4]; 20 mg./kg., 29-day mark): an impressive delay in cataract formation was still observed at the 29-day mark
eyes with lenticular opacities ([4]; 22-day mark, 10 mg./kg. in food): greater than 90%
eyes with lenticular opacities ([4]; 29-day mark, 20 mg./kg. in food): 37%
eyes with lenticular opacities ([4]; 17 days, 10 mg./kg. in food, control 100%): 6%
eyes with lenticular opacities ([4]; 17 days, 20 mg./kg. in food, control 100%): 0%
lenticular opacities in the eyes ([4]; after 8-14 days, either 10 mg./kg. or 20 mg./kg. in food, control 90% of eyes): no opacities being present
delay in cataract formation ([4]; all treated groups (10 and 20 mg./kg.)): delay in cataract formation continued in all the treated groups until the 22-day mark
lenses with area of involvement never less than 10% ([5]; 10 mg./kg.): 6%
lenses with area of involvement never less than 10% ([5]; 20 mg./kg.): 0%
severity of lenticular opacities versus control group ([5]; treated groups, including 29-day mark): always less than that found in the control group
control (inhibition) of the formation of sorbitol levels (in words) [6]: to a significantly high degree
lowering of sorbitol levels in sciatic nerve (peripheral nerves) and lens (in words) [7]: extremely effective
lowering of galactitol levels in the lens (in words) [8]: extremely effective

solubility in water [9]: freely soluble in water
Compound: O=C1NC(=O)C2(CCOc3ccc(F)cc32)N1 (stereo not shown) [sodium salt of 6-fluoro-spiro-[chroman-4,4'-imidazolidine]-2',5'-dione]
